The supplement of paper PMC7017272
± gives the standard deviation of the averaged measurements.

Tests used:
Conditions in all cases: treatment time: 3 days
[1] = test system: UT-SCC-81; test: maximal % inhibition of viability relative to DMSO; higher = stronger effect
Protocol: (§1)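 HNSCC cell lines (500 cells/well, 384-well) were cultured on plastic, on top of (2D) or embedded (3D) in Matrigel or human leiomyoma matrix Myogel (500 ug/mL; Myogel 3D mixed with rat collagen I). Cells were treated for 3 days with 5 ten-fold concentrations of each drug, and viability was read by CellTiter-Glo. Viability was normalised to DMSO and benzethonium chloride controls and fitted with the FIMM DSRT pipeline to give IC50 (nM), maximal % inhibition and DSS. Suffixes _1/_2/_3 are replicates. Only inhibition-mode (IC50) fits are kept.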

[2] = test system: UT-SCC-8; test: as above
Protocol: as §1

[3] = test system: UT-SCC-24B; test: as above
Protocol: as §1

[4] = test system: UT-SCC-14; test: as above
Protocol: as §1

[5] = test system: UT-SCC-40; test: as above
Protocol: as §1

[6] = test system: UT-SCC-42B; test: as above
Protocol: as §1

[7] = test system: UT-SCC-28; test: as above
Protocol: as §1

[8] = test system: UT-SCC-42A; test: as above
Protocol: as §1

[9] = test system: UT-SCC-24A; test: relative IC50 (midpoint of the fitted curve; maximal inhibition may be below 50%); higher = less potent
Protocol: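 HNSCC cell lines (500 cells/well, 384-well) were cultured on plastic, on top of (2D) or embedded (3D) in Matrigel or human leiomyoma matrix Myogel (500 ug/mL; Myogel 3D mixed with rat collagen I). Cells were treated for 3 days with 5 ten-fold concentrations of each drug, and viability was read by CellTiter-Glo. Viability was normalised to DMSO (0% inhibition) and 100 uM benzethonium chloride (100% inhibition) controls and fitted with the FIMM DSRT pipeline to give IC50 (nM), maximal % inhibition and the drug sensitivity score (DSS). Suffixes _1/_2/_3 on drug names are replicates.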

[10] = test system: UT-SCC-81; test: relative IC50 (midpoint of the fitted curve; maximal inhibition may be below 50%); higher = less potent
Method in brief: (§2)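 Viability of HPV-negative HNSCC cell lines was measured by CellTiter-Glo 2.0 luminescence. Cells were seeded at 500 cells/well in 384-well plates on plastic, on Matrigel- or Myogel-coated wells (500 µg/mL), or embedded in Matrigel or Myogel plus rat collagen I, then given compounds at five 10-fold concentrations for 3 days, with signals normalised to vehicle (0.1% DMSO) and cell-killing control wells. Fitting of percent-inhibition dose–response curves in the FIMM pipeline yielded IC50, maximal inhibition and drug sensitivity score.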

[11] = test system: UT-SCC-8; test: as above
Method in brief: as §2

[12] = test system: UT-SCC-24B; test: as above
Method in brief: as §2

[13] = test system: UT-SCC-44; test: as above
Method in brief: as §2

[14] = test system: UT-SCC-73; test: as above
Method in brief: as §2

[15] = test system: UT-SCC-14; test: as above
Method in brief: as §2

[16] = test system: UT-SCC-106A; test: as above
Method in brief: as §2

[17] = test system: UT-SCC-40; test: as above
Method in brief: as §2

[18] = test system: UT-SCC-42B; test: as above
Method in brief: as §2

[19] = test system: UT-SCC-42A; test: as above
Method in brief: as §2

[20] = culture condition: embedded in Matrigel
[21] = culture condition: embedded in Myogel + collagen I
[22] = culture condition: on top of Matrigel
[23] = culture condition: on top of Myogel
[24] = culture condition: plastic 2D (no matrix)

For COc1cc(F)c(F)c(Nc2ccc(I)cc2F)c1NS(=O)(=O)C1(C[C@H](O)CO)CC1 [Refametinib], the “maximal % inhibition of viability” value [1, 20] was 87.7 ± 0.46%, the “maximal % inhibition of viability” value [1, 21] was 50.7 ± 1.9% and the “maximal % inhibition of viability” value [1, 22] was 82.7 ± 0.99%. The “maximal % inhibition of viability” value [1, 23] was 52 ± 3.4%, the “maximal % inhibition of viability” value [1, 24] was 73.1 ± 2.5% and the “maximal % inhibition of viability” value [2, 20] was 88.8 ± 1.6%. For the same compound, the “maximal % inhibition of viability” value [2, 21] was 74.1 ± 13%, the “maximal % inhibition of viability” value [2, 22] was 81.7 ± 2.5% and the “maximal % inhibition of viability” value [2, 23] was 73 ± 5.1%. The “maximal % inhibition of viability” value [2, 24] was 80.2 ± 3.9%, the “maximal % inhibition of viability” value [3, 20] was 72.4 ± 3.9% and the “maximal % inhibition of viability” value [3, 21] was 86.3 ± 3.8%. The “maximal % inhibition of viability” value [3, 22] was 72.9 ± 4.8%, the “maximal % inhibition of viability” value [3, 23] was 72.2 ± 2.3% and the “maximal % inhibition of viability” value [3, 24] was 84 ± 2.2%. The “maximal % inhibition of viability” value [4, 20] was 62.5 ± 5.1%, the “maximal % inhibition of viability” value [4, 21] was 57 ± 5.9% and the “maximal % inhibition of viability” value [4, 22] was 52.9 ± 9.5%. For the same compound, the “maximal % inhibition of viability” value [4, 23] was 52.2 ± 5.8%, the “maximal % inhibition of viability” value [4, 24] was 47.7 ± 7.5% and the “maximal % inhibition of viability” value [5, 20] was 80.9 ± 2.5%. The “maximal % inhibition of viability” value [5, 21] was 76 ± 7.2%, the “maximal % inhibition of viability” value [5, 22] was 75.9 ± 1.6% and the “maximal % inhibition of viability” value [5, 23] was 61.23 ± 0.5%. The “maximal % inhibition of viability” value [5, 24] was 63.2 ± 2.9%, the “maximal % inhibition of viability” value [6, 20] was 79.1 ± 7.6% and the “maximal % inhibition of viability” value [6, 22] was 64.1 ± 4.8%. For the same compound, the “maximal % inhibition of viability” value [6, 23] was 46.5 ± 1.5%, the “maximal % inhibition of viability” value [6, 24] was 47.5 ± 2.6% and the “maximal % inhibition of viability” value [7, 20] was 49.8 ± 4%. The “maximal % inhibition of viability” value [7, 21] was 33 ± 8.1%, the “maximal % inhibition of viability” value [7, 22] was 45.1 ± 8.6% and the “maximal % inhibition of viability” value [7, 24] was 23.7 ± 2%. For the same compound, the “maximal % inhibition of viability” value [8, 20] was 61.2 ± 1.2%, the “maximal % inhibition of viability” value [8, 21] was 42.4 ± 6.9% and the “maximal % inhibition of viability” value [8, 22] was 61.9 ± 0.94%. The “maximal % inhibition of viability” value [8, 23] was 48.8 ± 5.2%, the “maximal % inhibition of viability” value [8, 24] was 58.8 ± 3.1% and the “relative IC50” value [9, 20] was 3.14 nM. For the same compound, the “relative IC50” value [9, 22] was 8.76 nM, the “relative IC50” value [9, 24] was 9.97 nM and the “relative IC50” value [10, 20] was 14.2 nM. The “relative IC50” value [10, 21] was 924 nM, the “relative IC50” value [10, 22] was 61.6 nM and the “relative IC50” value [10, 24] was 850 nM. For the same compound, the “relative IC50” value [11, 20] was 259 nM, the “relative IC50” value [11, 21] was 1760 nM and the “relative IC50” value [11, 22] was 410 nM. For the same compound, the “relative IC50” value [11, 24] was 602 nM, the “relative IC50” value [12, 20] was 309 nM and the “relative IC50” value [12, 21] was 808 nM. The “relative IC50” value [12, 22] was 317 nM, the “relative IC50” value [12, 23] was 1430 nM and the “relative IC50” value [12, 24] was 184 nM. For the same compound, the “relative IC50” value [13, 20] was 56.2 nM, the “relative IC50” value [13, 21] was 417 nM and the “relative IC50” value [13, 22] was 58.4 nM. The “relative IC50” value [13, 23] was 569 nM, the “relative IC50” value [13, 24] was 61.7 nM and the “relative IC50” value [14, 20] was 38.5 nM. For the same compound, the “relative IC50” value [14, 22] was 31.8 nM, the “relative IC50” value [14, 23] was 132 nM and the “relative IC50” value [14, 24] was 64.4 nM. For the same compound, the “relative IC50” value [15, 21] was 238 nM, the “relative IC50” value [15, 22] was 146 nM and the “relative IC50” value [15, 23] was 299 nM. For the same compound, the “relative IC50” value [16, 20] was 15.2 nM, the “relative IC50” value [16, 22] was 15.5 nM and the “relative IC50” value [16, 23] was 498 nM. The “relative IC50” value [16, 24] was 25.7 nM, the “relative IC50” value [17, 20] was 15.3 nM and the “relative IC50” value [17, 21] was 118 nM. For the same compound, the “relative IC50” value [17, 22] was 33.5 nM, the “relative IC50” value [17, 23] was 83.3 nM and the “relative IC50” value [17, 24] was 111 nM. The “relative IC50” value [18, 20] was 16.6 nM, the “relative IC50” value [18, 22] was 79.5 nM and the “relative IC50” value [18, 23] was 757 nM. The “relative IC50” value [18, 24] was 218 nM, the “relative IC50” value [19, 20] was 36.3 nM and the “relative IC50” value [19, 21] was 94.1 nM. For the same compound, the “relative IC50” value [19, 22] was 20.8 nM and the “relative IC50” value [19, 24] was 41.5 nM.
